# Test results from patent US12171756B2, “NLRP3 modulators” (Innate Tumor Immunity, Inc., priority 2017, dated 2024).
# Structures can show the parent of a compound that is named as a salt. Where two headings read alike, the source gives them in different places.
# Key:
# [1] = test system: IL-1β production in PMA-differentiated THP-1 cells; experiment: Measurement of IL-1β production in PMA-differentiated THP-1 cells (ELISA, 4 hours); format: cell-based, human; details: assayed using one or more of the described procedures, read-out: NLRP3 hIL1B IC50
# Summary of the method: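 IL-1β released into supernatant was measured by ELISA after a 4-hour compound exposure (final DMSO 1%, concentrations such as 100 down to 0.1 μM). Cells: THP-1 pretreated 24 h with 10 μg/ml PMA, then trypsinized and seeded at 1×10^6/ml in 2% FBS RPMI.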
# [2] = target: T1, human TLR7 (Homo sapiens, UniProt Q9NYK1); experiment: In vitro human TLR7 binding reporter assay (HEK-Blue, NF-kB/AP1-inducible SEAP); format: cell-based; details: HEK-Blue human TLR7 SEAP reporter cells; activity range classes; read-out: TLR7 Agonist EC50
# T1 construct: host or cells: human HEK-Blue cells (HEK293-derived) co-expressing TLR7 and an NF-kB/AP1-inducible SEAP reporter
# T1 sequence (Q9NYK1 27-1049): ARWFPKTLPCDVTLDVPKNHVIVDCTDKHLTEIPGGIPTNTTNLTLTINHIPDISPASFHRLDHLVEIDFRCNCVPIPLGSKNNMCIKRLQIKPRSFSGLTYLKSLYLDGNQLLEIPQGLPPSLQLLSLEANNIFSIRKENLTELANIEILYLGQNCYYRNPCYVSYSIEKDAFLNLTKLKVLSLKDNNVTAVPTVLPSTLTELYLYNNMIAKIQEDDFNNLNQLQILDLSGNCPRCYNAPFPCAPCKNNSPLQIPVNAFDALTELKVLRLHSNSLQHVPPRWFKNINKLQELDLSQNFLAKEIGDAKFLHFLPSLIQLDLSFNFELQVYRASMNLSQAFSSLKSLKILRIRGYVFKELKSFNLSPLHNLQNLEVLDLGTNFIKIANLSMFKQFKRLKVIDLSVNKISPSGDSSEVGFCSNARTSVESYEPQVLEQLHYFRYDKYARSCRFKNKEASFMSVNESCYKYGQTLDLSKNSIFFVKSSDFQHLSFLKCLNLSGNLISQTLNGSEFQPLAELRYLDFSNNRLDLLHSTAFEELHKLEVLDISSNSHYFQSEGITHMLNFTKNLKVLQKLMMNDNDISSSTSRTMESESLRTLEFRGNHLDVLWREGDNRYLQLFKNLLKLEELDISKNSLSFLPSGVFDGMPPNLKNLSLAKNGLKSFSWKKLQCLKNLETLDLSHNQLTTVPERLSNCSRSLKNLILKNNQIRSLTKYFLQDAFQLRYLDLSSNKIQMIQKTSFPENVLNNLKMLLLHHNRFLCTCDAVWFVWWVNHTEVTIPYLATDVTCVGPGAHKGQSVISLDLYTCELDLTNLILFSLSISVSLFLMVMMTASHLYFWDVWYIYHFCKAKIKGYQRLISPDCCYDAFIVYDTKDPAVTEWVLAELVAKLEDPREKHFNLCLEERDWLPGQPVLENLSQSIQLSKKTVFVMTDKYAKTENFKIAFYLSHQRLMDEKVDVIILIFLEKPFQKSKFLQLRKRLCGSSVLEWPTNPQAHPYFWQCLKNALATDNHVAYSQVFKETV
# Summary of the method: (§1)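 HEK-Blue cells expressing human TLR7 or TLR8 with NF-kB/AP1-inducible SEAP reporter, plated 24 h, then compound-treated 18 h at 37° C, 5% CO2. EC50 normalized to 100% Ymax set by 50 μM reference standard.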
# [3] = target: T2, human TLR8 (Homo sapiens, UniProt Q9NR97); experiment: In vitro human TLR8 binding reporter assay (HEK-Blue, NF-kB/AP1-inducible SEAP); format: cell-based; details: HEK-Blue human TLR8 SEAP reporter cells; activity range classes; read-out: TLR8 Agonist EC50
# T2 construct: host or cells: human HEK-Blue cells (HEK293-derived) co-expressing TLR8 and an NF-kB/AP1-inducible SEAP reporter
# T2 sequence (Q9NR97 27-1041): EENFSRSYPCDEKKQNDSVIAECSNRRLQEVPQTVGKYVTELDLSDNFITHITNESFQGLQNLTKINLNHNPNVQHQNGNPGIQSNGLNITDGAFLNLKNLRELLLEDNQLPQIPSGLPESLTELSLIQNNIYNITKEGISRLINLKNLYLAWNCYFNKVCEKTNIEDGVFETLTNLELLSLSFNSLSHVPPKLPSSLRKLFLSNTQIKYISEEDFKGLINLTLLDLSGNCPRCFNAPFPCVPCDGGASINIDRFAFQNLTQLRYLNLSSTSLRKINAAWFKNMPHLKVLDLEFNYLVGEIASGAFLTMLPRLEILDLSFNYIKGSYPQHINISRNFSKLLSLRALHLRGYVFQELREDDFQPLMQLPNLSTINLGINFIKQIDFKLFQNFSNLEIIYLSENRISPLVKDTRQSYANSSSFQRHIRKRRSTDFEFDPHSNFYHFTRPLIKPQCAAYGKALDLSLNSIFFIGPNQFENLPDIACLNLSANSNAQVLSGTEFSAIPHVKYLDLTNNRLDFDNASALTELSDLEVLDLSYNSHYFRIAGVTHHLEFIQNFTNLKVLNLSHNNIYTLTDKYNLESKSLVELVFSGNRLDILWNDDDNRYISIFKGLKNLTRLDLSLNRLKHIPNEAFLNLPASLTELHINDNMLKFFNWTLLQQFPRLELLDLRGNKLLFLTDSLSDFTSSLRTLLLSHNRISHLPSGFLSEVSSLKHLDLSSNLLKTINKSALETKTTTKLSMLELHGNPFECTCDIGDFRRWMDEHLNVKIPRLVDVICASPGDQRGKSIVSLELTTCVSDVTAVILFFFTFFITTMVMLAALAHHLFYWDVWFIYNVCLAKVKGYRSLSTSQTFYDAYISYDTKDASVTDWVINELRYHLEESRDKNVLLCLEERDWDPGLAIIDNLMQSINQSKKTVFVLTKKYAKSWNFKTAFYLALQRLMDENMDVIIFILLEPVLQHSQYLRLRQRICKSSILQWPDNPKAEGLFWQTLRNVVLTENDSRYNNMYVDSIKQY
# Summary of the method: as §1
# [4] = Homo sapiens, THP-1, human IL-1β production
SMILES,"IC50 [1, 4] [µM]",EC50 [2] [µM],EC50 [3] [µM],IC50 ([1]; human IL-1β production) [µM]
C[C@@H](O)CNc1cc(N)nc2cc(-c3ccn[nH]3)ccc12 [Compound 133],0.3,> 100,> 100,
Nc1cc(NCc2ccccc2)c2ccc(-c3ccn[nH]3)cc2n1 [Compound 256],0.22,> 100,> 100,
CC(C)(C)OC(=O)N1CC(Nc2cc(N)nc3cc(-c4ccn[nH]4)ccc23)C1 [Compound 270],7.37,> 100,> 100,
Nc1cc(O[C@H]2CC[C@H](O)CC2)c2ccc(-c3ccn[nH]3)cc2n1 [Compound 191],0.63,> 100,> 100,
Nc1cc(NCCn2ccnc2)c2ccc(-c3ccn[nH]3)cc2n1 [Compound 152],1.03,> 100,> 100,
Nc1cc(NCCc2cc[nH]n2)c2ccc(-c3ccn[nH]3)cc2n1 [Compound 261],0.14,> 100,> 100,
Cc1nc[nH]c1CNc1cc(N)nc2cc(-c3ccn[nH]3)ccc12 [Compound 237],2.57,> 100,> 100,
CC(C)(CNc1cc(N)nc2cc(-c3ccn[nH]3)ccc12)S(C)(=O)=O [Compound 223],1.35,> 100,> 100,
Nc1cc(NCCn2cccn2)c2ccc(-n3cccn3)cc2n1 [Compound 302],0.05,> 100,> 100,
Nc1cc(NCCn2cccn2)c2ccc(-c3ccn[nH]3)cc2n1 [Compound 262],0.12,> 100,> 100,
"CS(=O)(=O)NCCCNc1cc(N)nc2cc(-c3ccn[nH]3)ccc12 [Compound 215, N-(3-((2-amino-7-(1H-pyrazol-5-yl)quinolin-4-yl)amino)propyl)methanesulfonamide]",1.94,> 100,> 100,
Nc1cc(NC[C@@H]2COCCN2)c2ccc(-c3ccn[nH]3)cc2n1 [Compound 268],0.97,> 100,> 100,
Cc1nc(C(=O)NCCCNc2cc(N)nc3cc(-c4ccn[nH]4)ccc23)c(C)s1 [Compound 210],20.8,> 100,> 100,
Nc1cc(NCC2CNC2)c2ccc(-c3ccn[nH]3)cc2n1 [Compound 325],23.2,> 100,> 100,
"Nc1cc(NCCC2CCOCC2)c2ccc(-c3ccsc3)cc2n1 [Compound 345, N4-(2-(tetrahydro-2H-pyran-4-yl)ethyl)-7-(thiophen-3-yl)quinoline-2,4-diamine]",1.77,> 100,> 100,
Nc1nc2cc(-c3ccn[nH]3)ccc2cc1CN1CCCC1=O [Compound 119],3.07,> 100,20 to 100,
Nc1cc(OCCc2ccsc2)c2ccc(-c3cccs3)cc2n1 [Compound 330],24.6,> 100,> 100,
Nc1cc(NCc2c[nH]nn2)c2ccc(-c3ccn[nH]3)cc2n1 [Compound 226],0.73,> 100,> 100,
Nc1cc(NCC(O)c2ccccn2)c2ccc(-c3ccn[nH]3)cc2n1 (stereo not drawn) [Compound 155],0.42,> 100,> 100,
Nc1cc(OC[C@H](O)CO)c2ccc(-c3ccn[nH]3)cc2n1 [Compound 221],0.52,> 100,> 100,
"Nc1nc2cc(-c3cc[nH]n3)ccc2cc1CCCO [Compound 103, 3-[2-amino-7-(1H-pyrazol-3-yl)quinolin-3-yl]propan-1-ol]",1.6,> 100,> 100,
Nc1cc(N2CCOCC2)c2ccc(-c3ccn[nH]3)cc2n1 [Compound 131],0.85,> 100,> 100,
"Cn1ccnc1C(=O)NCCCNc1cc(N)nc2cc(-c3ccn[nH]3)ccc12 [Compound 209, N-(3-((2-amino-7-(1H-pyrazol-5-yl)quinolin-4-yl)amino)propyl)-1-methyl-1H-imidazole-2-carboxamide, 2TFA]",1.96,> 100,> 100,

# Next, values leading:
"IC50 [1, 4] [µM]",EC50 [2] [µM],EC50 [3] [µM],IC50 ([1]; human IL-1β production) [µM],SMILES
0.15,> 100,> 100,,Nc1cc(NCc2ncc[nH]2)c2ccc(-n3cccn3)cc2n1 [Compound 298]
1.52,> 100,> 100,,"Nc1cc(NC(CO)CO)c2ccc(-c3ccn[nH]3)cc2n1 [Compound 315, 2-((2-amino-7-(1H-pyrazol-5-yl)quinolin-4-yl)amino)propane-1,3-diol]"
1.07,> 100,> 100,,"CCNC(=O)NCCNc1cc(N)nc2cc(-c3ccn[nH]3)ccc12 [Compound 207, 1-(2-((2-amino-7-(1H-pyrazol-5-yl)quinolin-4-yl)amino)ethyl)-3-ethylurea, TFA]"
0.27,> 100,> 100,,COCCNc1cc(N)nc2cc(-c3ccn[nH]3)ccc12 [Compound 255]
0.66,> 100,> 100,,Nc1cc(OCc2cccnc2)c2ccc(-c3ccn[nH]3)cc2n1 [Compound 190]
0.82,> 100,> 100,,CNC(=O)CCNc1cc(N)nc2cc(-n3cccn3)ccc12 [Compound 174]
0.93,> 100,> 100,,CC(C)(O)CCOc1cc(N)nc2cc(-c3ccn[nH]3)ccc12 [Compound 195]
2.65,> 100,> 100,,Cc1cn(CCNc2cc(N)nc3cc(-c4ccn[nH]4)ccc23)nn1 [Compound 236]
,> 100,> 100,1.72,Nc1cc(N[C@H]2CCCC[C@H]2O)c2ccc(-c3ccn[nH]3)cc2n1 [Compound 250]
0.41,> 100,> 100,,"Nc1cc(OCCCCO)c2ccc(-c3ccn[nH]3)cc2n1 [Compound 172, 4-((2-amino-7-(1H-pyrazol-5-yl)quinolin-4-yl)oxy)butan-1-ol]"
